The term inhibition denotes the percentage by which the read-out fell short of the control. As usually defined, the MIC is the least concentration at which growth counts as inhibited. By CC50 is commonly meant the concentration giving 50% cytotoxicity. Read a low CC50 as greater toxicity to the cells.

Where “and” joins values, the source holds several entries; their conditions need not be identical. Identical values can stand only once.

The text below walks through data of publication PMC9503778, “Targeted Isolation of Antibiotic Brominated Alkaloids from the Marine Sponge Pseudoceratina durissima Using Virtual Screening and Molecular Networking” (Marine Drugs, 2022).

The test system of one data set is human red blood cells. Description: Haemolysis assay (CO-ADD). The format is cell-based.
Data set [1] deals with C. neoformans var. grubii strain ATCC 208821. The data set can be described thus: Antimicrobial growth inhibition (CO-ADD), C. neoformans. Conditions: duplicate (n = 2) values; for % inhibition C. neoformans: 32 µg/mL. Type of data set: cell-based, Cryptococcus neoformans. The procedure: (§1) Compounds 1−3 and 5−12 were assayed against a selection of medically important pathogenic microorganisms (MRSA, E. coli, K. pneumoniae, A. baumanii, P. aeruginosa, C. albicans, C. neoformans), Table 4. […] To the best of our knowledge this compound had not been tested against any drug resistant strain of Gram-positive bacterium until this study.
(§2) The antimicrobial activity testing was performed by the Community for Antimicrobial Drug Discovery (CO-ADD). Compounds were assayed against a range of both Gram negative and Gram positive bacteria (see Supplementary Materials S3) including methicillin-resistant Staphylococcus aureus (MRSA) (G+), Escherichia coli (G-), Klebsiella pneumoniae (G-), Acinetobacter baumannii (G-), Pseudomonas aeruginosa (G-) together with two species of fungus (Candida albicans and Cryptococcus neoformans).
(§3) S3. Antimicrobial activity testing methodology
(§4) The compounds submitted to CO-ADD were evaluated in duplicate (n = 2) against seven microorganisms (five bacteria and two fungi) at a concentration of 32 µg/mL in a 384-well, non-binding surface plate (NBS) for each bacterial/fungal strain, keeping the final DMSO concentration to a maximum of 1% DMSO. All bacteria were cultured in cation-adjusted […]
(§5) Fungal strains were cultured for 3 days on Yeast Extract-Peptone Dextrose (YPD) agar at 30 °C. A yeast suspension of 1 x 10^6 to 5 x 10^6 CFU/mL (as determined by OD530) was prepared from five colonies. The suspension was subsequently diluted and added to each well of the compound-containing plates giving a final cell density of fungi suspension of 2.5 x 10^3 CFU/mL and a total volume of 50 µL. All plates were covered and incubated at 35 °C for 24 h without shaking. […]
Growth inhibition of C. albicans was determined measuring absorbance at 530 nm (OD530), while the growth inhibition of C. neoformans was determined measuring the difference in absorbance between 600 and 570 nm (OD600-570), after the addition of resazurin (0.001% final concentration) and incubation at 35 °C for an additional 2 h. The absorbance was measured using a Biotek Synergy HTX plate reader. The percentage of growth inhibition was calculated for each well, using negative control (medium only) and positive control (bacteria without inhibitors) on the same plate as the references. The significance of inhibition values was determined by modified Z-scores, calculated using the median and MAD of the samples (no controls) on the same plate. Samples with inhibition value above 80% and Z-score above 2.5 for either replicate (n = 2 on different plates) were classed as actives.
(§6) Colistin and vancomycin were used as positive bacterial inhibitor standards for Gram-negative and Gram-positive bac-teria, respectively. Fluconazole was used as a positive fungal inhibitor standard for C. albicans and C. neoformans. The antibiotics were provided in four concentrations, with two above and two below its MIC value, and plated into the first eight wells of column 23 of the 384-well NBS plates. The quality control (QC) of the assays was determined by the antimicrobial controls and the Z’-factor (using positive and negative controls). Each plate was deemed to fulfil the qual- […]
(§7) full growth inhibition at their highest concentration, and no growth inhibition at their lowest concentration. The seven […]
(§8) test microorganisms were Staphylococcus aureus MRSA (ATCC 43300), Escherichia coli (ATCC 25922), Klebsiella pneu-moniae (ATCC 700603), Acinetobacter baumanii (ATCC19606), Pseudomonas aeruginosa (ATCC 27853), Candida albicans (ATCC 90028) and Cryptococcus neoformans var. grubii (H99; ATCC 208821).
(§9) S4. Anthelmintic activity testing methodology
Dose-response evaluations were carried out to estimate the half-maximal inhibitory concentrations (IC50 values) for compounds against Haemonchus contortus (Haecon-5 strain) exsheathed third-stage larvae (xL3s). H. contortus were maintained in experimental sheep and procured in accordance with the institutional animal ethics guidelines and the […]

Data set [2] has as its system E. Coli (G-) strain ATCC 25922. Description: Antimicrobial growth inhibition (CO-ADD), E. coli. The format is cell-based, Escherichia coli. The following applies: for % inhibition E. coli: 32 µg/mL; for MIC: ATCC25922, ATCC 25922, MIC = concentration at which growth inhibited by ≥80%, read-out: MIC E. coli. The procedure:
as §1, §2, §3
(§10) The compounds submitted to CO-ADD were evaluated in duplicate (n = 2) against seven microorganisms (five bacteria and two fungi) at a concentration of 32 µg/mL in a 384-well, non-binding surface plate (NBS) for each bacterial/fungal strain, keeping the final DMSO concentration to a maximum of 1% DMSO. All bacteria were cultured in cation-adjusted Mueller-Hinton broth (CAMHB) at 37 °C overnight. A sample of each culture was then diluted 40-fold in fresh broth and incubated at 37 °C for 1.5-3 h. The resultant mid-log phase cultures were diluted (CFU/mL measured by OD600), then added to each well of the compound containing plates, giving a cell density of 5x10^5 CFU/mL and a total volume of 50 µL. All the plates were covered and incubated at 37 °C for 18 h without shaking. […] Inhibition of bacterial growth was determined measuring absorbance at 600 nm (OD600) using a Tecan M1000 Pro mon-ochromator plate reader. […]
(§11) 2 h. The absorbance was measured using a Biotek Synergy HTX plate reader. The percentage of growth inhibition was calculated for each well, using negative control (medium only) and positive control (bacteria without inhibitors) on the same plate as the references. The significance of inhibition values was determined by modified Z-scores, calculated using the median and MAD of the samples (no controls) on the same plate. Samples with inhibition value above 80% and Z-score above 2.5 for either replicate (n = 2 on different plates) were classed as actives.
as §6, §7, §8, §9
(§12) Dose-response evaluations were carried out to estimate the half-maximal inhibitory concentrations (IC50 values) for compounds against Haemonchus contortus (Haecon-5 strain) exsheathed third-stage larvae (xL3s). H. contortus were maintained in experimental sheep and procured in accordance with the institutional animal ethics guidelines and the regulations of Australia (permit no. 1714374; University of Melbourne). Immediately prior to use, third-stage larvae (L3s) were exsheathed and sterilised by incubation in 0.15% (v/v) bleach at 38 °C for 20 min, followed by washes in […]

The test system of data set [3] is K. pneumoniae (G-) strain ATCC 700603. The data set can be described thus: Antimicrobial growth inhibition (CO-ADD), K. pneumoniae. Type of data set: cell-based, Klebsiella pneumoniae. Conditions: for % inhibition K. pneumoniae: 32 µg/mL; for MIC: ATCC700603, ATCC 700603, read-out: MIC K. pneumoniae. The procedure:
as §1, §2, §3, §10, §11, §6, §7, §8, §9, §12

Data set [4] has as its system C. albicans (yeast) ATCC 90028. The data set can be described thus: Antimicrobial growth inhibition (CO-ADD), C. albicans. Type of data set: cell-based, Candida albicans. The following applies: Candida albicans, ATCC90028; ATCC 90028; read-out: MIC C. albicans. The procedure:
as §1, §2, §3, §4, §5, §11, §6, §7, §8, §9
Dose-response evaluations were carried out to estimate the half-maximal inhibitory concentrations (IC50 values) for compounds against Haemonchus contortus (Haecon-5 strain) exsheathed third-stage larvae (xL3s). H. contortus were maintained in experimental sheep and procured in accordance with the institutional animal ethics guidelines and the regulations of Australia (permit no. 1714374; University of Melbourne). Immediately prior to use, third-stage larvae (L3s) were exsheathed and sterilised by incubation in 0.15% (v/v) bleach at 38 °C for 20 min, followed by washes in sterile saline at room temperature (22-24 °C). […]

Data set [5] can be described thus: Cytotoxicity assay (CO-ADD). Type of data set: cell-based. The following applies: human, human embryonic kidney cells.

Regarding `NC(=O)Cc1c(O)cc(Br)c(O)c1Br` [Compound 9, subereaphenol A], in the data set on human red blood cells, the “Haemolysis (HC10)” value worked out at 1.032 µg/mL. In addition, the “% inhibition C. neoformans” value in data set [1] is listed as 11.9%. Further, the inhibition at 32 µg/mL in data set [1] (Cryptococcus neoformans, ATCC208821, 32 µg/mL, read-out: % inhibition C. neoformans) was 11.2%. Also, in data set [2] (duplicate (n = 2) values), the “% inhibition E. coli” value was 1.5% and 9.6%. Further, the MIC in data set [2] (Escherichia coli), in data set [3] (Klebsiella pneumoniae) and in data set [4] was over 32 µg/mL throughout. Further, the “% inhibition K. pneumoniae” value in data set [3] (duplicate (n = 2) values) was 15.5% and 6.6%. This compound returned a CC50 in data set [5] of over 32 µg/mL.

`COc1c(Br)cc(CC#N)c(O)c1Br` [Compound 8, 2-(3,5-dibromo-2-hydroxy-4-methoxyphenyl)acetonitrile]: the “Haemolysis (HC10)” value with human red blood cells is over 32 µg/mL. In data set [1], the “% inhibition C. neoformans” value is 11.1% and 4.0%. The “% inhibition E. coli” value in data set [2] (duplicate (n = 2) values) amounted to 16.9%. The inhibition at 32 µg/mL in data set [2] (Escherichia coli, ATCC25922, 32 µg/mL, duplicate (n = 2) values, read-out: % inhibition E. coli) worked out at 12.7%; in data set [3] (Klebsiella pneumoniae, ATCC700603, 32 µg/mL, duplicate (n = 2) values, read-out: % inhibition K. pneumoniae), 10.3%. Further, the MIC in data set [2] (Escherichia coli), in data set [3] (Klebsiella pneumoniae) and in data set [4] was over 32 µg/mL in each case. For the same compound, the “% inhibition K. pneumoniae” value in data set [3] (duplicate (n = 2) values) was determined as 12.5%. Besides, in data set [5], the half-maximal cytotoxic concentration (CC50) is over 32 µg/mL.
